Activity calls are given as the source filed them. No cut-off for these calls is given here.
Tests used:
[1] = target: T1, Mitogen-activated protein kinase 1 and 3 (ERK2 and ERK1) (Mus musculus) (UniProt P63085+Q63844); assay type: cell-based; conditions: BaF3, dose 10-1000 nM, time 8.0 hrs
BaF3 [2] = assay: cells; conditions: Mus musculus, BaF3, 72 h
[3] = system: Epidermal growth factor receptor (Homo sapiens), P04626+P00533+Q15303+P21860 [L858R]; conditions: Mus musculus; BaF3; dose 10-1000 nM, time 8.0 hrs
[4] = target: T1, Mitogen-activated protein kinase 1 and 3 (ERK2 and ERK1) (Mus musculus); assay: Inhibition of ERK1/2 phosphorylation in mouse BaF3 cells harboring L858R mutant assessed as ERK1/2 phosphorylation at 10 to 1000 nM incubated for 8 hrs by Western blot analysis; assay type: cell-based; conditions: dose 10-1000 nM
BaF3 [5] = assay: cells; assay type: functional, cell-based; conditions: Mus musculus, BaF3, 72 h
[6] = target: RAC-alpha serine/threonine-protein kinase (Mus musculus) (UniProt P31750); assay type: cell-based; conditions: BaF3, dose 10-1000 nM, time 8.0 hrs
Chain of RAC-alpha serine/threonine-protein kinase (Mus musculus) (P31750 whole entry): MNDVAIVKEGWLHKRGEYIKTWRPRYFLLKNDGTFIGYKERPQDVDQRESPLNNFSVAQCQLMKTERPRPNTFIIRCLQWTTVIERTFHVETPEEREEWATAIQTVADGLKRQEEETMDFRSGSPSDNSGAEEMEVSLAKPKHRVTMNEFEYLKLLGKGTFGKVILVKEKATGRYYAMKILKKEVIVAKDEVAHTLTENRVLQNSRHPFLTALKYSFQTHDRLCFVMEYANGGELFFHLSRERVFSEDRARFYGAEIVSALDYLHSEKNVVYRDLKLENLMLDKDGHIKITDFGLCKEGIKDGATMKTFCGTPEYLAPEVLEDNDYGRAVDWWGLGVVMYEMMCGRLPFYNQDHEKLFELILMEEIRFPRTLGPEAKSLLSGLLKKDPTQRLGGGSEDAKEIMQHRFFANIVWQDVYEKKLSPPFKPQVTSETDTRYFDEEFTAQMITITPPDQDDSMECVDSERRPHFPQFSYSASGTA

[7] = target: T2, Dual specificity tyrosine-phosphorylation-regulated kinase 2 (Homo sapiens) (UniProt Q92630); assay: Binding affinity to recombinant DYRK2 (unknown origin) assessed as change in melting temperature 10 uM by differential scanning fluorimetry
T2 sequence (whole entry): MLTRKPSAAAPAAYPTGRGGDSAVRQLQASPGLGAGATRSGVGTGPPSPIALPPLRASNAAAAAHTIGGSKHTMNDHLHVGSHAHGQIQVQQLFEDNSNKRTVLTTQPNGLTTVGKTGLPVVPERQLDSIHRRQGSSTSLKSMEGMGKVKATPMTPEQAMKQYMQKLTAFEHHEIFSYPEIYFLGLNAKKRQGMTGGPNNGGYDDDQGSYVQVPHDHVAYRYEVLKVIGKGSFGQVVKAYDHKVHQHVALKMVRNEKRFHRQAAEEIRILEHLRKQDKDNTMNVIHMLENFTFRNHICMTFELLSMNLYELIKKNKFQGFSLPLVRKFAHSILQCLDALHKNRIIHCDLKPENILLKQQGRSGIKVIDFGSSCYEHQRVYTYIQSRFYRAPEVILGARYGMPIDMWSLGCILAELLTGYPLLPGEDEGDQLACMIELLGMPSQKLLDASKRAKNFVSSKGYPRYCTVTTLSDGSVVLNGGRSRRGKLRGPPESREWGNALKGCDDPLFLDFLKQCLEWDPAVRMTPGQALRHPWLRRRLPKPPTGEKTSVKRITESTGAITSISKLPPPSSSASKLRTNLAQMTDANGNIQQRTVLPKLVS

[8] = target: Epidermal growth factor receptor (Homo sapiens, UniProt P00533)
Chain of Epidermal growth factor receptor (Homo sapiens, UniProt P00533) (P00533 whole entry): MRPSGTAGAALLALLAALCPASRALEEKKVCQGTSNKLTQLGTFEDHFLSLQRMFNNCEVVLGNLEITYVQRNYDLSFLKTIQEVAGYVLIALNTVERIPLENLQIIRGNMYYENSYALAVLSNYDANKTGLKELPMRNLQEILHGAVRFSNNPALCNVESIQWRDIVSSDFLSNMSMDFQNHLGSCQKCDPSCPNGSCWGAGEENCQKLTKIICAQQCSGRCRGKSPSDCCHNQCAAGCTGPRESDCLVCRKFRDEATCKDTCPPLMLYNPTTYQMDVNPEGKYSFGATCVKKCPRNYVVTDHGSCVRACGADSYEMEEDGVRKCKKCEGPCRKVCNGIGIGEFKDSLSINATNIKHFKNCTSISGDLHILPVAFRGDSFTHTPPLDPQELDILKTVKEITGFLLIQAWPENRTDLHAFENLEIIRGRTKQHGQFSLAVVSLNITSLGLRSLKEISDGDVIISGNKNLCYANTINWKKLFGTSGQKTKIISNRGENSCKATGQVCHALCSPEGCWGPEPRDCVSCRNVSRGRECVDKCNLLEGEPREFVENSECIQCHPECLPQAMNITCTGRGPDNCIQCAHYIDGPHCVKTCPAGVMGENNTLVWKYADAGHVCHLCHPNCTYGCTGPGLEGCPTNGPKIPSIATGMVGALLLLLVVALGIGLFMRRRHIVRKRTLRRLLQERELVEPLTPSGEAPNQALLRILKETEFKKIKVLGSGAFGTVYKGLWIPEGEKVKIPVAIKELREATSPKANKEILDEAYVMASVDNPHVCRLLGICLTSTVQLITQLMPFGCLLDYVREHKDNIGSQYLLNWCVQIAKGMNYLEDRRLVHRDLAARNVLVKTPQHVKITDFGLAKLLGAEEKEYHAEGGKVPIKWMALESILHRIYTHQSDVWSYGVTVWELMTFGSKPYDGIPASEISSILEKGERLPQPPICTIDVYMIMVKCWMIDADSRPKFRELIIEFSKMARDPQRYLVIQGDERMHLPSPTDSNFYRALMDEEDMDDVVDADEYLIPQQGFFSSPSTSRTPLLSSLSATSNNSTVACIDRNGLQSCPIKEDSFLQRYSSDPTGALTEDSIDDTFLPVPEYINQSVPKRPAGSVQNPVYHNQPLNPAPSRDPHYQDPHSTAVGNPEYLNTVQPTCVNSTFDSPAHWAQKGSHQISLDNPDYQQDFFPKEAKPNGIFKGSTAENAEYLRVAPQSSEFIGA

BaF3 [9] = assay: cells; assay type: functional, cell-based; conditions: Mus musculus, BaF3, 72 h; remark: listed apart in the source
[10] = target: T1, Mitogen-activated protein kinase 1 and 3 (ERK2 and ERK1) (Mus musculus); assay: Inhibition of ERK1/2 phosphorylation in mouse BaF3 cells harboring Del19 mutant assessed as ERK1/2 phosphorylation at 10 to 1000 nM incubated for 8 hrs by Western blot analysis; assay type: cell-based; conditions: dose 10-1000 nM
[11] = target: Epidermal growth factor receptor (Homo sapiens, UniProt P00533, L858R)
Chain of Epidermal growth factor receptor (Homo sapiens, UniProt P00533, L858R) (P00533 25-1210 L858R limits assumed): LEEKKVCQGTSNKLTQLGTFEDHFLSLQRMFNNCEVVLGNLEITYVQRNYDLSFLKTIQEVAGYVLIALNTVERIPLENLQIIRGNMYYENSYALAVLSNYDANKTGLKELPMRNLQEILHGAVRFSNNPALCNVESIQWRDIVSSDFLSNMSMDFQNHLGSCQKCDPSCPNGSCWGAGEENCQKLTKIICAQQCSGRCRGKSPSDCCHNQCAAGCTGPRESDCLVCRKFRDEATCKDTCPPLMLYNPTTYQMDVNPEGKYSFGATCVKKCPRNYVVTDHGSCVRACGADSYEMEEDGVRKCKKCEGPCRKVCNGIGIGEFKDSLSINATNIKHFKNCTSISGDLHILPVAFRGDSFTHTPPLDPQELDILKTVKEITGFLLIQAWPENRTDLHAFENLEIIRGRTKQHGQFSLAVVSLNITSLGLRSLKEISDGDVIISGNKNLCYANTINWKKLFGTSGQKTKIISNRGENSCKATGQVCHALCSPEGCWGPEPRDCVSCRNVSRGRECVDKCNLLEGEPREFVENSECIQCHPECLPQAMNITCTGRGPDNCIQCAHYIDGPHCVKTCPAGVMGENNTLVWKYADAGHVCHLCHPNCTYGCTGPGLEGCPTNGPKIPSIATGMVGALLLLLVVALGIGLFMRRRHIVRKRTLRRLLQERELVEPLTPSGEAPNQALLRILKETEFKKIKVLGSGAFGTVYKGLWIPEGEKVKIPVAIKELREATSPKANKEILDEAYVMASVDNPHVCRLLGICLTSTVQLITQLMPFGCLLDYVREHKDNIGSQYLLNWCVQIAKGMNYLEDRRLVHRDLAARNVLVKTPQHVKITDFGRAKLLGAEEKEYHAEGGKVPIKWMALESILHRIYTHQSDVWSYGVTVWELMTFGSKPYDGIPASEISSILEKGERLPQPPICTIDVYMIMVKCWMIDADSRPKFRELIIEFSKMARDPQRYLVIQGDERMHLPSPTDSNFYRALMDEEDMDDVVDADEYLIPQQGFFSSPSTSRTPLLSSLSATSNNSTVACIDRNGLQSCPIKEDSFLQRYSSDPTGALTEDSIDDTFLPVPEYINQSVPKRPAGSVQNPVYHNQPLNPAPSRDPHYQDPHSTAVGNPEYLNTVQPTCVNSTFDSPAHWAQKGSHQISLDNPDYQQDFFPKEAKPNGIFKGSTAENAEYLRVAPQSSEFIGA

[12] = target: Dual specificity tyrosine-phosphorylation-regulated kinase 1A (Homo sapiens) (UniProt Q13627); assay: Binding affinity to recombinant DYRK1 (unknown origin) assessed as change in melting temperature 10 uM by differential scanning fluorimetry
BaF3 [13] = assay: cells; conditions: Mus musculus, BaF3, 72 h; remark: listed apart in the source
[14] = target: RAC-alpha serine/threonine-protein kinase (Mus musculus) (UniProt P31750); assay: Inhibition of AKT phosphorylation in mouse BaF3 cells harboring Del19 mutant assessed as […] phosphorylation at 10 to 1000 nM incubated for 8 hrs by Western blot analysis; assay type: cell-based; conditions: dose 10-1000 nM

T1 sequence (P63085 whole entry, looked up): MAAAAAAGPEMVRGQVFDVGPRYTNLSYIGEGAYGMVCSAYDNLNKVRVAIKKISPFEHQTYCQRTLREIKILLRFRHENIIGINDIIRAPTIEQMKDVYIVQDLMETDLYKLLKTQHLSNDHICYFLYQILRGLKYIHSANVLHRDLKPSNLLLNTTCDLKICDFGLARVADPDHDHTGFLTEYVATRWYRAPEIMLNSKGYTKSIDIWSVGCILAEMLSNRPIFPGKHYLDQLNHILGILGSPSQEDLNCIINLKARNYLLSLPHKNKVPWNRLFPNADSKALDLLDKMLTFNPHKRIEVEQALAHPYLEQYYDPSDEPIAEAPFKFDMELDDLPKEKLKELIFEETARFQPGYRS
T1 sequence (Q63844 whole entry, looked up): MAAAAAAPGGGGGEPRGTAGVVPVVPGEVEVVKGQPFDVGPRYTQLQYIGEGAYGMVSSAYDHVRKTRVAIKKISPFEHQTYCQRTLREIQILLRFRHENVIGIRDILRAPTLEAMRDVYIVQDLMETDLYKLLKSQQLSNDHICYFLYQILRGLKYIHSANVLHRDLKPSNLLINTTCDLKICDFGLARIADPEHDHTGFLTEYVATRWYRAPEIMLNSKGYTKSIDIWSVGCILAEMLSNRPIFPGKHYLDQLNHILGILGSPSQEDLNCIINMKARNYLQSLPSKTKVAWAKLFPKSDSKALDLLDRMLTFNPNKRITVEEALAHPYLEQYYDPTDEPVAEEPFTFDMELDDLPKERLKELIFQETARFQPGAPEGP

- inhibition [1]: Active
- IC50 (BaF3 [2]): 93.1 nM
- inhibition [3]: Active
- inhibition [4]: Active
- IC50 (BaF3 [5]): 5180 nM
- inhibition [6]: Active
- ΔTm [7]: > 3 °C
- IC50 [8]: 1800 nM
- IC50 (BaF3 [9]): 120 nM
- inhibition [10]: Active
- IC50 [11]: 18.8 nM
- ΔTm [12]: > 3 °C
- IC50 (BaF3 [13]): 141 nM
- inhibition [14]: Active
SMILES: COc1cc2ncnc(Nc3cc(Cl)c(F)cc3O)c2cc1O
